In paper PMC11005426 (mBio, 2024):

Biological target: T1, ASFV topo II ATPase domain (African swine fever virus, UniProt A0A2X0THW2)
T1 construct: gene P1192R CDS
Conditions: Mg2+; ATP-binding site; 0.5 mM AMPPNP, 5 mM MgCl2, HEPES pH 7.5

Nc1ncnc2c1ncn2[C@@H]1O[C@H](COP(=O)(O)OP(=O)(O)NP(=O)(O)O)[C@@H](O)[C@H]1O [AMPPNP]
X-ray crystal structure, 2.20 A: crystal structure of the isolated ATPase domain from ASFV topo II in complex with AMPPNP
